Data from ChEMBL document CHEMBL3400130, “Identification of apoptosis signal-regulating kinase 1 (ASK1) inhibitors among the derivatives of benzothiazol-2-yl-3-hydroxy-5-phenyl-1,5-dihydro-pyrrol-2-one” (Bioorg Med Chem, 2015).

Assays:
[1] = molecular target: T1, Mitogen-activated protein kinase kinase kinase 5 (Homo sapiens, UniProt Q99683); assay: Inhibition of recombinant ASK1 catalytic subunit (unknown origin) using MBP substrate and gamma-labeled 32P ATP incubated for 20 mins by liquid scintillation counting method
T1 sequence (Q99683 whole entry): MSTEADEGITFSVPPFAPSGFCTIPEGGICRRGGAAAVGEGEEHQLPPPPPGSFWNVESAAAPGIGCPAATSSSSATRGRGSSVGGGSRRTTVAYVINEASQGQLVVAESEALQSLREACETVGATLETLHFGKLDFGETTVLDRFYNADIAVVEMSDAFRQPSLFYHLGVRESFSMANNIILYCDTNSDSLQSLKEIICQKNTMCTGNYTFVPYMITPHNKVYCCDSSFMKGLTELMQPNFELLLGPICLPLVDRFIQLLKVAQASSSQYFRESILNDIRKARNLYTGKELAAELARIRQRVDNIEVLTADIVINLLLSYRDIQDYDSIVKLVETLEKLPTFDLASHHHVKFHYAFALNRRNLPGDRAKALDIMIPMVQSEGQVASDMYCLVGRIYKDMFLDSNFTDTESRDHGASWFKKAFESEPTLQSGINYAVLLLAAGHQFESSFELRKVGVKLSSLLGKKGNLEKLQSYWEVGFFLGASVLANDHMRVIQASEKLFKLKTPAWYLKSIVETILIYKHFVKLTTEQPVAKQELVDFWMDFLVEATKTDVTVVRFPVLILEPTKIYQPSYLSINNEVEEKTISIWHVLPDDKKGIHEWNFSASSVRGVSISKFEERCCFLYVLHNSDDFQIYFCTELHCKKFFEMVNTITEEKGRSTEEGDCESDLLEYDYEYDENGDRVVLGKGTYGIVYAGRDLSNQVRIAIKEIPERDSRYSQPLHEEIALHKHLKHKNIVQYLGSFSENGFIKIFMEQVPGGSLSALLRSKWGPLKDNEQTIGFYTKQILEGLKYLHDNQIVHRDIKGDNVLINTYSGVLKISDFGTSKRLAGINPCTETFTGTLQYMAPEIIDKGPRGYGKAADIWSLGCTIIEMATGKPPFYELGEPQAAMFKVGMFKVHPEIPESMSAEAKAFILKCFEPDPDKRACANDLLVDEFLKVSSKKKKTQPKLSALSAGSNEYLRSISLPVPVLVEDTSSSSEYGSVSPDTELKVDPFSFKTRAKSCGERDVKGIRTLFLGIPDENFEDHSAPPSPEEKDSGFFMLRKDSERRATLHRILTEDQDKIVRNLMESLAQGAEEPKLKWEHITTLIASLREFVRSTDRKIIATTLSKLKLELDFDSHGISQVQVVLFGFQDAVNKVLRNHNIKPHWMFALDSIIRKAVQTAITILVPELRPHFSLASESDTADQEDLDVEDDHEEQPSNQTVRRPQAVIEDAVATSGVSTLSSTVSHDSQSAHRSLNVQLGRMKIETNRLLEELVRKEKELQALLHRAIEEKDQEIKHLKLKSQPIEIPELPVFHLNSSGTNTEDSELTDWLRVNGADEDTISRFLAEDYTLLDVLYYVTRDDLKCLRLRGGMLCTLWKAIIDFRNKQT

[2] = molecular target: Casein kinase II (Homo sapiens) (UniProt P67870+P68400+P19784); assay: Inhibition of CK2 (unknown origin) assessed as residual enzyme activity at 10 uM using RRRDDDSDDD substrate peptide; assay type: protein-complex assay
[3] = molecular target: Mitogen-activated protein kinase 10 (Homo sapiens) (UniProt P53779); assay: Inhibition of JNK3 (unknown origin) assessed as residual enzyme activity at 10 uM using JNK3tide substrate
Mitogen-activated protein kinase 10 (Homo sapiens), sequence (P53779 whole entry): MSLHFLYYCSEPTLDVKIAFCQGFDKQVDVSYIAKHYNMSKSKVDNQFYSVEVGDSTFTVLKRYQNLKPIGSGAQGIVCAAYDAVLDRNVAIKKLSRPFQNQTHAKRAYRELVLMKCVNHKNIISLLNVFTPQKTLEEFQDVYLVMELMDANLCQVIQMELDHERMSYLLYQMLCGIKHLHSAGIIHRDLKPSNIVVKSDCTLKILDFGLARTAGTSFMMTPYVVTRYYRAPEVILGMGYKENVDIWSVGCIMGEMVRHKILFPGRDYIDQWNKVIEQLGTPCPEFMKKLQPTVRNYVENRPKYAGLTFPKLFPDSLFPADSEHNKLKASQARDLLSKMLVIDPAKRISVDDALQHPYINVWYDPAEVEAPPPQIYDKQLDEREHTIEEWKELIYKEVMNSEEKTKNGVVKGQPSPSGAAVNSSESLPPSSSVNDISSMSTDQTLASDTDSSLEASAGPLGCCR

[4] = molecular target: Fibroblast growth factor receptor 1 (Homo sapiens) (UniProt P11362); assay: Inhibition of FGFR1 (unknown origin) assessed as residual enzyme activity at 10 uM using IGF-IRtide (12 to 527) substrate
Fibroblast growth factor receptor 1 (Homo sapiens), sequence (P11362 22-822 limits assumed): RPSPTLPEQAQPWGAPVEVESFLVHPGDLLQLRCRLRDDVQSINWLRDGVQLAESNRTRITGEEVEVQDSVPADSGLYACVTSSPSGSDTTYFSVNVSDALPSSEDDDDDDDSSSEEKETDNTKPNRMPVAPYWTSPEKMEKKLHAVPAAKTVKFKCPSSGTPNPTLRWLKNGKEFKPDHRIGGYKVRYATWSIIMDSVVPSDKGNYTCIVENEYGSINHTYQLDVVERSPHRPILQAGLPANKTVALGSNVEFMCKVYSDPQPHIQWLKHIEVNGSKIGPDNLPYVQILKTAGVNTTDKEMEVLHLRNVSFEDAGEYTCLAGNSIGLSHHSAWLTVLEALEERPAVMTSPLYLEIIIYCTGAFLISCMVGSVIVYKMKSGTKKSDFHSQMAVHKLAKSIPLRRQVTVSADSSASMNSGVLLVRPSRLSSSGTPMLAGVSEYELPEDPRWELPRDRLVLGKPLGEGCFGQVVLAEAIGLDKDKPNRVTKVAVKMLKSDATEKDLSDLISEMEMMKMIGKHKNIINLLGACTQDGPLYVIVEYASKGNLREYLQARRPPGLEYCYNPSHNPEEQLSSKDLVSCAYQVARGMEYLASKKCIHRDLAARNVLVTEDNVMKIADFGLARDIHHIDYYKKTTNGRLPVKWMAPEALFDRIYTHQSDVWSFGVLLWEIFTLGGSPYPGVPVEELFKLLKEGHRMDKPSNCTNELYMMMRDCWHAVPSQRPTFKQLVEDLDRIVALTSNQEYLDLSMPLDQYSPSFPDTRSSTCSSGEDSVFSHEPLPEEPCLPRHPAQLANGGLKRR

[5] = molecular target: T2, Aurora kinase A (Homo sapiens) (UniProt O14965); assay: Inhibition of Aurora A (unknown origin) assessed as residual enzyme activity at 10 uM using kemptide substrate
T2 sequence (whole entry): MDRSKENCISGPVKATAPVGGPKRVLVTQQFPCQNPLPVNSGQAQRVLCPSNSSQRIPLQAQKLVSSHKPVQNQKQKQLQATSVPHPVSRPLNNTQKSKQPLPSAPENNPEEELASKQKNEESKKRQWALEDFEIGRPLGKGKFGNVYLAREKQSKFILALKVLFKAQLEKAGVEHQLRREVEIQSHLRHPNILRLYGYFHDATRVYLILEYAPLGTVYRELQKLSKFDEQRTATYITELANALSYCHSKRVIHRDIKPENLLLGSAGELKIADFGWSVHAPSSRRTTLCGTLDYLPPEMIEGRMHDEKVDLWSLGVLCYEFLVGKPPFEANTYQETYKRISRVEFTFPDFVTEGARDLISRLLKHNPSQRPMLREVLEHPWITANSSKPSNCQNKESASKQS

[6] = molecular target: Angiopoietin-1 receptor (Homo sapiens) (UniProt Q02763); assay: Inhibition of Tie2 (unknown origin) assessed as residual enzyme activity at 10 uM using TK Substrate 2 (poly Glu-Tyr) substrate
Angiopoietin-1 receptor (Homo sapiens), sequence (Q02763 whole entry): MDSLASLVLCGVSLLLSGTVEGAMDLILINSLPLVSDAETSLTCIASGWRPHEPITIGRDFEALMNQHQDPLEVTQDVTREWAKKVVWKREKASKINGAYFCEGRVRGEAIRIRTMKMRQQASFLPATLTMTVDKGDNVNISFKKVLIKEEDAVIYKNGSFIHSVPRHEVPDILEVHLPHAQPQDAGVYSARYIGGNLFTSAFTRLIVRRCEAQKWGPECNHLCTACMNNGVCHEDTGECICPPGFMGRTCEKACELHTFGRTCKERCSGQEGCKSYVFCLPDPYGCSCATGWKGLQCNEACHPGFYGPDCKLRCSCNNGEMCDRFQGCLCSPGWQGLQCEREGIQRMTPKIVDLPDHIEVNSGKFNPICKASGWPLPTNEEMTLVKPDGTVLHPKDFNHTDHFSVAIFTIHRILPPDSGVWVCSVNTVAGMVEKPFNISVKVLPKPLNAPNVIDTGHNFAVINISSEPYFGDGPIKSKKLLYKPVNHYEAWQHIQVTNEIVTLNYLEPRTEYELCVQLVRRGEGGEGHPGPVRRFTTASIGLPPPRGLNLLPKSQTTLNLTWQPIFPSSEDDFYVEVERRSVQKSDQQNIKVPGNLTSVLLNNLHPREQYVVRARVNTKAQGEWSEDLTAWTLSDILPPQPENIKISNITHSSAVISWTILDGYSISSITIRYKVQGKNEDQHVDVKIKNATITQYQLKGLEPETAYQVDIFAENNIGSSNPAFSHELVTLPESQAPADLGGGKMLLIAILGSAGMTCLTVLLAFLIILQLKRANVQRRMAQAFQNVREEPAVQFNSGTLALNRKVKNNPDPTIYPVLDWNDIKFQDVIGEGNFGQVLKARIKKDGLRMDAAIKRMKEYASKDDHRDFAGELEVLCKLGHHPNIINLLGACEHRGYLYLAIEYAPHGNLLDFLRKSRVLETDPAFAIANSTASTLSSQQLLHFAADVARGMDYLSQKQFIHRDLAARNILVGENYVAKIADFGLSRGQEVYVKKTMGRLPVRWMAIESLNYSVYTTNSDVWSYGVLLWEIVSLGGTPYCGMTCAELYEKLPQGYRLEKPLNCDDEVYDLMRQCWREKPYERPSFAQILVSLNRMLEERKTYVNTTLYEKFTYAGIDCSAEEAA

[7] = molecular target: T3, Mitogen-activated protein kinase kinase kinase 5 (Homo sapiens) (UniProt Q99683); assay: Inhibition of recombinant ASK1 catalytic subunit (unknown origin) assessed as residual enzyme activity at 10 uM using MBP substrate and gamma-labeled 32P ATP incubated for 20 mins by liquid scintillation counting method
T3 sequence (whole entry): T1 sequence (Q99683 whole entry)

Row | SMILES | IC50 [1] | Activity [2] | Activity [3] | Activity [4] | Activity [5] | Activity [6] | Activity [7]
1 | COc1ccc(C2C(C(=O)c3ccc(C)o3)=C(O)C(=O)N2c2nc3ccc(C)cc3s2)cc1OC (stereo not drawn) | 38 µM | – | – | – | – | – | –
2 | Cc1ccc2nc(N3C(=O)C(O)=C(C(=O)c4ccc(F)cc4)C3c3ccc(Cl)cc3)sc2c1 (stereo not drawn) | 2.9 µM | – | – | – | – | – | –
3 | Cc1cc(C)c2nc(N3C(=O)C(O)=C(C(=O)c4ccco4)C3c3ccccc3)sc2c1 (stereo not drawn) | 63 µM | – | – | – | – | – | –
4 | CCOc1ccc2nc(N3C(=O)C(O)=C(C(=O)c4cccs4)C3c3ccc(C)cc3)sc2c1 (stereo not drawn) | 4.4 µM | 79.9% | 100% | 88.7% | 45.4% | 83.2% | 27%
5 | Cc1ccc(C(=O)C2=C(O)C(=O)N(c3nc4ccc(F)cc4s3)C2c2ccc(C(C)(C)C)cc2)cc1 (stereo not drawn) | 7.6 µM | – | – | – | – | – | –
6 | CCCCCOc1ccc(C2C(C(=O)c3ccc4c(c3)OCCO4)=C(O)C(=O)N2c2nc3ccc(C)cc3s2)cc1 (stereo not drawn) | 5.2 µM | 90% | 92.5% | 25.5% | 28.1% | 59.9% | 13.2%
7 | CCOc1ccc(C(=O)C2=C(O)C(=O)N(c3nc4ccc(C)cc4s3)C2c2ccc(F)cc2)cc1 (stereo not drawn) | 5.5 µM | – | – | – | – | – | –
8 | CCCOc1ccc(C2C(C(=O)c3ccc4c(c3)OCCO4)=C(O)C(=O)N2c2nc3ccc(Cl)cc3s2)cc1 (stereo not drawn) | 5 µM | – | – | – | – | – | –
9 | Cc1ccc2nc(N3C(=O)C(O)=C(C(=O)c4ccco4)C3c3cccc(Br)c3)sc2c1 (stereo not drawn) | 31 µM | – | – | – | – | – | –
10 | CCCCOc1ccc(C2C(C(=O)c3ccc4c(c3)OCCO4)=C(O)C(=O)N2c2nc3ccc(Cl)cc3s2)cc1OCC (stereo not drawn) | 3.6 µM | 89.7% | 100% | 18% | 28.8% | 78.8% | 19.7%
11 | CCOc1ccc2nc(N3C(=O)C(O)=C(C(=O)c4ccc(C)cc4)C3c3ccc(C(C)(C)C)cc3)sc2c1 (stereo not drawn) | 2 µM | 97.8% | 100% | 40.3% | 52% | 100% | 23.5%
12 | CCOc1ccc2nc(N3C(=O)C(O)=C(C(=O)c4ccccc4)C3c3ccc(C(C)(C)C)cc3)sc2c1 (stereo not drawn) | 5 µM | – | – | – | – | – | –
13 | CCCCOc1ccc(C2C(C(=O)c3ccc4c(c3)OCCO4)=C(O)C(=O)N2c2nc3ccc(Cl)cc3s2)cc1 (stereo not drawn) | 5.2 µM | 99.3% | 100% | 36.2% | 35.2% | 100% | 15.8%
14 | CCCCOc1ccc(C2C(C(=O)c3ccc4c(c3)OCCO4)=C(O)C(=O)N2c2nc3ccc(C)cc3s2)cc1 (stereo not drawn) | 4.6 µM | 85.6% | 100% | 58.1% | 20.5% | 94.2% | 19.8%
15 | Cc1ccc2nc(N3C(=O)C(O)=C(C(=O)c4ccco4)C3c3ccc(Cl)cc3)sc2c1 (stereo not drawn) | 30.2 µM | – | – | – | – | – | –
16 | Cc1cc(C)c2nc(N3C(=O)C(O)=C(C(=O)c4ccc(Cl)cc4)C3c3ccc(C(C)C)cc3)sc2c1 (stereo not drawn) | 6.3 µM | – | – | – | – | – | –
17 | O=C(C1=C(O)C(=O)N(c2nc3ccc(F)cc3s2)C1c1ccc(Br)cc1)c1ccco1 (stereo not drawn) | 28.2 µM | – | – | – | – | – | –
